Experimental data from PubChem BioAssay AID651630 (Sanford-Burnham Center for Chemical Genomics, 2012).
Active and inactive are the calls of the source.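 Rule for the calls: active = lipid-stain IC50 at or below a set limit, with nuclear-stain toxicity IC50 at least five times higher; inactive = the rest.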

Experiments:
DAPI = experiment: TAG lipid buildup inhibition with viability readout – cell-based, panel, Nile Red and DAPI fluorescence, H9c2, dose response (AID 651630); details: H9c2 cells, DAPI nuclear fluorescence (cytotoxicity counter-readout), oleic acid;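 note: cells exposed to compound overnight before fixation and staining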
TAG = experiment: as above; details: H9c2 cells, Nile Red TAG fluorescence, oleic acid

| Compound | IC50 cytotoxicity (DAPI nuclear signal decrease) (DAPI; mean of runs) | IC50 cytotoxicity (DAPI nuclear signal decrease) (DAPI; run 1) | IC50 cytotoxicity (DAPI nuclear signal decrease) (DAPI; run 2) | IC50 (TAG; mean of runs) | IC50 (TAG; run 1) | IC50 (TAG; run 2) |
| --- | --- | --- | --- | --- | --- | --- |
| CC(C)C(C)(C#N)NC(=O)CSc1nc2scc(-c3ccco3)c2c(=O)n1-c1ccccc1 (centres undefined) | > 25 µM (inactive) | > 25 µM | > 25 µM | 10.5 µM | 11.4 µM | 9.69 µM |
| CC1(c2ccccc2)O[C@@H]2C[C@H]3[C@@H]4CCC5=CC(=O)C=C[C@]5(C)[C@@]4(F)[C@@H](O)C[C@]3(C)[C@]2(C(=O)CO)O1 (some centres undefined) | > 25 µM (inactive) | > 25 µM | > 25 µM | 13.9 µM | 13 µM | 14.7 µM |
| Cc1cccc2sc(NC(=O)C3CCCN(S(=O)(=O)c4cccc5nonc45)C3)nc12 (centres undefined) | > 25 µM (inactive) | > 25 µM | > 25 µM | 10.5 µM | 12.2 µM | 8.72 µM |
| O=C1NC(Cc2ccc(O)cc2)c2nc3ccc(F)cc3c(=O)n2-c2cc3ccccc3cc21 (centres undefined) | – | > 25 µM | > 25 µM | 2.45 µM | 2.11 µM | 2.79 µM |
| Cc1cccc(N2CCN(C(=O)c3c(-c4ccccc4Cl)noc3C)CC2)c1C | > 25 µM (inactive) | > 25 µM | > 25 µM | 16.3 µM (inactive) | 16.5 µM | 16 µM |
| C[C@@H]1CN([C@@H](C)CO)C(=O)c2cccc(NC(=O)Nc3ccc(F)cc3)c2O[C@@H]1CN(C)Cc1ccc(Oc2ccccc2)cc1 | – | > 25 µM | > 25 µM | 1.42 µM | 1.71 µM | 1.14 µM |
| Fc1cccc(Nc2nc(-c3ccncc3)nc3ccccc23)c1 | > 25 µM (inactive) | > 25 µM | > 25 µM | > 25 µM (inactive) | > 25 µM | > 25 µM |
| COc1ccc(CN(C)C[C@@H]2OCCCC[C@H](C)Oc3ccc(NC(=O)Nc4ccc(F)cc4)cc3C(=O)N([C@H](C)CO)C[C@H]2C)cc1 | > 25 µM (inactive) | > 25 µM | > 25 µM | – | 21.8 µM | > 25 µM |
| Cn1nnnc1Sc1ncnc2scc(-c3cccc(S(C)(=O)=O)c3)c12 | > 25 µM (inactive) | > 25 µM | > 25 µM | > 25 µM (inactive) | > 25 µM | > 25 µM |
| NC(=O)c1cccc(-c2ccnc3c2CC(C(=O)NCc2ccccc2)O3)c1 (centres undefined) | > 25 µM (inactive) | > 25 µM | > 25 µM | > 25 µM (inactive) | > 25 µM | > 25 µM |
| CCOc1cc(CNC(C)(C)C)ccc1OCC(=O)Nc1cccc(C(F)(F)F)c1 | > 25 µM (inactive) | > 25 µM | > 25 µM | 16.3 µM (inactive) | 15.5 µM | 17.2 µM |
| COc1cccc2sc(Nc3nc(-c4cc5ccccc5oc4=O)cs3)nc12 | > 25 µM (inactive) | > 25 µM | > 25 µM | 8.35 µM | 7.33 µM | 9.37 µM |
| CCOc1cc(CNc2ccc3c(c2)OCCO3)cc(Br)c1OCC | > 25 µM (inactive) | > 25 µM | > 25 µM | > 25 µM (inactive) | > 25 µM | > 25 µM |
| Nc1c(C(=O)NC2CCCC2)c2nc3ccccc3nc2n1/N=C/c1cccnc1 | > 25 µM (inactive) | > 25 µM | > 25 µM | 19 µM (inactive) | 15 µM | 23 µM |
| Nc1c(C(=O)Nc2ccccc2)c2nc3ccccc3nc2n1CCCN1CCOCC1 | – | > 25 µM | > 25 µM | 4.64 µM | 4.97 µM | 4.31 µM |
| CCCCCc1cc(=O)oc2c(C(CCN3CCCC3)c3cc(OC)c(OC)c(OC)c3)c(OC)cc(OC)c12 (centres undefined) | 20.2 µM (inactive) | 20.1 µM | 20.2 µM | – | > 25 µM | 17.4 µM |
| Nc1cc2c(cc1Br)[nH]c(=O)c1ccccc12 | > 25 µM (inactive) | > 25 µM | > 25 µM | 8.3 µM | 8.66 µM | 7.94 µM |

| Compound | IC50 cytotoxicity (DAPI nuclear signal decrease) (DAPI; mean of runs) | IC50 cytotoxicity (DAPI nuclear signal decrease) (DAPI; run 1) | IC50 cytotoxicity (DAPI nuclear signal decrease) (DAPI; run 2) | IC50 (TAG; mean of runs) | IC50 (TAG; run 1) | IC50 (TAG; run 2) |
| --- | --- | --- | --- | --- | --- | --- |
| CCC(C)(C)C1CCC2(CC1)NC(=O)N(CC(=O)NCCc1ccc(OC)c(OC)c1)C2=O (centres undefined) | – | > 25 µM | > 25 µM | 3.29 µM | 1.91 µM | 4.67 µM |
| C=CC[C@@H](CC(=O)N(CCO)Cc1ccccc1)C(=O)N[C@H](COC(=O)[C@@H](CC=C)Cc1ccc(F)cc1)Cc1ccccc1 | > 25 µM (inactive) | > 25 µM | > 25 µM | 6.97 µM | 7.28 µM | 6.67 µM |
| COC(=O)c1cc(C(=O)N2CCN(c3cccc(Cl)c3)CC2)cc([N+](=O)[O-])c1 | > 25 µM (inactive) | > 25 µM | > 25 µM | – | 22.4 µM | > 25 µM |
| C=CC[C@@H](CC(=O)N(CCO)Cc1ccccc1)C(=O)N[C@H](COC(=O)[C@@H](CC=C)CC(=O)OC(C)(C)C)Cc1ccccc1 | > 25 µM (inactive) | > 25 µM | > 25 µM | 5.86 µM | 5.71 µM | 6.02 µM |
| CCOc1ccc2nc(-c3ccccc3)nc(SCC(=O)Nc3ncc(C)s3)c2c1 | > 25 µM (inactive) | > 25 µM | > 25 µM | > 25 µM (inactive) | > 25 µM | > 25 µM |
| Cc1cc(N/N=C/c2ccc(F)cc2)nc(-n2nc(C)cc2C)n1 | > 25 µM (inactive) | > 25 µM | > 25 µM | > 25 µM (inactive) | > 25 µM | > 25 µM |
| CNC(=O)c1ccc(-c2sc3nc(N4CCOCC4)c4c(c3c2N)CCCC4)o1 | > 25 µM (inactive) | > 25 µM | > 25 µM | 6.57 µM | 5.49 µM | 7.64 µM |
| Cc1cc(=O)oc2cc(NC(=O)c3cccc(Br)c3)ccc12 | > 25 µM (inactive) | > 25 µM | > 25 µM | > 25 µM (inactive) | > 25 µM | > 25 µM |
| Cc1ccc(/C=N/NC(=O)Cc2c[nH]c3ccccc23)c(C)c1 | > 25 µM (inactive) | > 25 µM | > 25 µM | – | 19.8 µM | > 25 µM |
| CCCCCC(=C/c1ccccc1)/C=N/Nc1ccc(S(=O)(=O)N2CCOCC2)cc1[N+](=O)[O-] | – | > 25 µM | > 25 µM | 2.9 µM | 1.96 µM | 3.83 µM |
| CN(C)c1ccc(NC(=O)Nc2nc(C(N)C3CCCCC3)cs2)cc1 (centres undefined) | > 25 µM (inactive) | > 25 µM | > 25 µM | > 25 µM (inactive) | > 25 µM | > 25 µM |
| Cc1ccc(Oc2ccc(S(=O)(=O)N3CCOCC3)cc2C(N)=O)c(-n2nc3ccccc3n2)c1 | > 25 µM (inactive) | > 25 µM | > 25 µM | > 25 µM (inactive) | > 25 µM | > 25 µM |
| CN(C)CCCn1c(=O)n(C2CCCCC2)c(=O)c2c3c(sc21)CCCCC3 | > 25 µM (inactive) | > 25 µM | > 25 µM | > 25 µM (inactive) | > 25 µM | > 25 µM |
| COc1ccccc1NC(=O)Nc1nc(C(N)Cc2ccc(C(F)(F)F)cc2)cs1 (centres undefined) | > 25 µM (inactive) | > 25 µM | > 25 µM | – | 16.1 µM | > 25 µM |
| COc1cc(NC(=O)c2cc3cccc(OC)c3o2)cc(C(=O)Nc2cccc(C(F)(F)F)c2)c1 | > 25 µM (inactive) | > 25 µM | > 25 µM | 12 µM | 9.27 µM | 14.7 µM |
| Cc1ccccc1NC(=O)CSc1nc(Nc2ccccc2)nc(N2CCOCC2)n1 | > 25 µM (inactive) | > 25 µM | > 25 µM | 12.9 µM | 15.7 µM | 10 µM |
| O=C(Nc1ccc(/C=C/c2nc3ccccc3o2)cc1)c1c(F)cccc1F | > 25 µM (inactive) | > 25 µM | > 25 µM | 10.5 µM | 13.2 µM | 7.82 µM |
